This experiment concerns P388 leukemia ip, CD2F1 mice, survival T/C. The experiment is described as follows: NCI In Vivo Anticancer Drug Screen. Data for tumor model P388 Leukemia (intraperitoneal) in CD2F1 (CDF1) mice. Particulars: endpoint: median survival time, higher = longer survival. The method, boiled down: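 Mice carrying the transplanted tumor received test compound or vehicle. Survival was recorded in each group, and the value is the treated-group measurement divided by that of the vehicle-treated control group.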

The mark [1] stands for this setting: dose: 60.0 mg/kg/injection, schedule: Q01DX005 (ip), vehicle: saline with Tween-80.
[2] abbreviates: dose: 50.0 mg/kg/injection, schedule: Q01DX005 (ip), vehicle: saline.
The mark [3] stands for this setting: dose: 100.0 mg/kg/injection, schedule: Q01DX005 (ip), vehicle: saline.
The mark [4] stands for this setting: dose: 200.0 mg/kg/injection, schedule: Q01DX005 (ip), vehicle: saline.
The mark [5] stands for this setting: dose: 120.0 mg/kg/injection, schedule: Q01DX005 (ip), vehicle: saline with Tween-80.
The mark [6] stands for this setting: dose: 240.0 mg/kg/injection, schedule: Q01DX005 (ip), vehicle: saline with Tween-80.
Where [7] appears, read: dose: 50.0 mg/kg/injection, schedule: Q01DX009 (ip), vehicle: Klucel (hydroxypropylcellulose) (HPC).
Setting [8] is: dose: 100.0 mg/kg/injection, schedule: Q01DX009 (ip), vehicle: Klucel (hydroxypropylcellulose) (HPC).
The mark [9] stands for this setting: dose: 50.0 mg/kg/injection, schedule: Q01DX005 (ip), vehicle: saline with Tween-80.
The mark [10] stands for this setting: dose: 100.0 mg/kg/injection, schedule: Q01DX005 (ip), vehicle: saline with Tween-80.
Setting [11] is: dose: 200.0 mg/kg/injection, schedule: Q01DX005 (ip), vehicle: saline with Tween-80.
The mark [12] stands for this setting: dose: 100.0 mg/kg/injection, schedule: Q01DX009 (ip), vehicle: saline with Tween-80.
The mark [13] stands for this setting: dose: 200.0 mg/kg/injection, schedule: Q01DX009 (ip), vehicle: saline with Tween-80.
[14] abbreviates: dose: 60.0 mg/kg/injection, schedule: Q01DX005 (ip), vehicle: Klucel (hydroxypropylcellulose) (HPC).
Where [15] appears, read: dose: 120.0 mg/kg/injection, schedule: Q01DX005 (ip), vehicle: Klucel (hydroxypropylcellulose) (HPC).
The mark [16] stands for this setting: dose: 240.0 mg/kg/injection, schedule: Q01DX005 (ip), vehicle: Klucel (hydroxypropylcellulose) (HPC).
The mark [17] stands for this setting: dose: 100.0 mg/kg/injection, schedule: Q04DX003 (ip), vehicle: saline with Tween-80.
[18] abbreviates: dose: 200.0 mg/kg/injection, schedule: Q04DX003 (ip), vehicle: saline with Tween-80.
Setting [19] is: dose: 400.0 mg/kg/injection, schedule: Q04DX003 (ip), vehicle: saline with Tween-80.

These results are taken from PubChem BioAssay AID330 (DTP/NCI, 2004).

“And” between values parts separate entries of the source, which are not always exact repeats. Equal entries are not always repeated. Inconclusive results and toxic doses are left out.

Regarding `CCOc1ccccc1NC1=C(Cl)C(=O)c2ccccc2C1=O`, the T/C (dose: 7.5 mg/kg/injection, schedule: Q01DX005 (ip), vehicle: saline with Tween-80) was 100 % of control; the T/C (dose: 15.0 mg/kg/injection, schedule: Q01DX005 (ip), vehicle: saline with Tween-80) was 94 % of control; the T/C (dose: 30.0 mg/kg/injection, schedule: Q01DX005 (ip), vehicle: saline with Tween-80) was 97 % of control; the T/C under setting [1] is 103 % of control.
Regarding `CC1=CC(C)(C2(C)C=C(C)NC(=O)N2)NC(=O)N1` (centres undefined), the T/C was 99 % of control (dose: 25.0 mg/kg/injection, schedule: Q01DX001 (ip), vehicle: Klucel (hydroxypropylcellulose) (HPC)); 98 % of control (dose: 50.0 mg/kg/injection, schedule: Q01DX001 (ip), vehicle: Klucel (hydroxypropylcellulose) (HPC)); 99 % of control (dose: 100.0 mg/kg/injection, schedule: Q01DX001 (ip), vehicle: Klucel (hydroxypropylcellulose) (HPC)).
Turning to `CCCCCCCCC(=O)c1c(OC)oc(/C=N/O)cc1=O`, the T/C (dose: 12.5 mg/kg/injection, schedule: Q01DX009 (ip), vehicle: Klucel (hydroxypropylcellulose) (HPC)) was 87 % of control.
In the case of `CC(O)C(=O)N(CCO)CCO` (centres undefined), the T/C under setting [2] is 108 % of control, the T/C under setting [3] was 101 % of control and the T/C under setting [4] was 104 % of control.
`O=C1C=CC(=CC=C2C=CN(CCCCCCO)C=C2)C=C1`: the T/C is 105 % of control under setting [1], 116 % of control under setting [5] and 122 % of control under setting [6].
Turning to `Nc1ccc2c(NCCCCCCCCNc3c4ccccc4nc4cc(N)ccc34)c3ccccc3nc2c1`, the T/C reads like this: (dose: 1.25 mg/kg/injection, schedule: Q01DX009 (ip), vehicle: other) 158 % of control; (dose: 2.5 mg/kg/injection, schedule: Q01DX009 (ip), vehicle: other) 150 % of control; (dose: 5.0 mg/kg/injection, schedule: Q01DX009 (ip), vehicle: other) 151 % of control.
For the compound `CC(=O)C1CCC=C2C1CC1CC2C1(C)C` (centres undefined), the T/C is 100 % of control (dose: 25.0 mg/kg/injection, schedule: Q01DX009 (ip), vehicle: Klucel (hydroxypropylcellulose) (HPC)); 100 % of control under setting [7]; 104 % of control under setting [8].
With `COc1ccc(-n2nc3c(c2-c2cccnc2)CCCc2ccccc2-3)cc1`, the T/C is, setting by setting: under setting [9], 95 % of control; under setting [10], 106 % of control; under setting [11], 101 % of control.
As to `O=C1NC(O)c2cc(O)ccc2O1` (centres undefined), the T/C reads like this: (dose: 50.0 mg/kg/injection, schedule: Q01DX005 (ip), vehicle: Klucel (hydroxypropylcellulose) (HPC)) 100 % of control; (dose: 100.0 mg/kg/injection, schedule: Q01DX005 (ip), vehicle: Klucel (hydroxypropylcellulose) (HPC)) 100 % of control; (dose: 200.0 mg/kg/injection, schedule: Q01DX005 (ip), vehicle: Klucel (hydroxypropylcellulose) (HPC)) 111 % of control.
Regarding `OC(CNc1ccccc1Cl)COc1ccc(Cl)cc1Cl` (centres undefined), the T/C runs as follows: (dose: 50.0 mg/kg/injection, schedule: Q01DX009 (ip), vehicle: saline with Tween-80) 94 % of control; under setting [12], 95 % of control; under setting [13], 106 % of control.
Consider `CCCCCCCCCCCCCCCCCC(=O)[O][Hg][c]1ccccc1`, for which the T/C reads like this: (dose: 2.5 mg/kg/injection, schedule: Q04DX003 (ip), vehicle: Klucel (hydroxypropylcellulose) (HPC)) 100 % of control; (dose: 5.0 mg/kg/injection, schedule: Q04DX003 (ip), vehicle: Klucel (hydroxypropylcellulose) (HPC)) 100 % of control; (dose: 10.0 mg/kg/injection, schedule: Q04DX003 (ip), vehicle: Klucel (hydroxypropylcellulose) (HPC)) 100 % of control.
Regarding `CCCCC[C@@H]1CC=CC(NC(=O)OCc2ccccc2)C1C=O` (some centres undefined), the T/C under setting [1] was 100 % of control, the T/C under setting [5] was 103 % of control and the T/C under setting [6] is 105 % of control.
The corresponding values for `C/C(=N\Oc1ncc([N+](=O)[O-])c(O/N=C(\C)c2ccccc2)n1)c1ccccc1` are 100 % of control, 88 % of control and 91 % of control.
Consider `CN1C(=O)N(C)N(Cc2ccccc2)C(=O)N1Cc1ccccc1`, for which the T/C under setting [14] was 97 % of control, the T/C under setting [15] was 100 % of control and the T/C under setting [16] is 96 % of control.
For `CC(C)(CC#N)c1cc(CC(C)(C)C2(C)OCCO2)no1`, the T/C was 104 % of control under setting [9], 98 % of control under setting [10] and 92 % of control under setting [11].
Consider `O=C1c2ccccc2C(=O)c2c(NC(=O)c3ccc4c5c(ncnc35)-c3ccccc3C4=O)cccc21`, for which the T/C is, setting by setting: under setting [7], 95 % of control; under setting [8], 100 % of control; (dose: 200.0 mg/kg/injection, schedule: Q01DX009 (ip), vehicle: Klucel (hydroxypropylcellulose) (HPC)) 94 % of control.
Take `CN(NC(=O)CCl)c1ccc([N+](=O)[O-])cc1[N+](=O)[O-]`: the T/C runs as follows: under setting [12], 118 % of control; under setting [13], 108 % of control; (dose: 400.0 mg/kg/injection, schedule: Q01DX009 (ip), vehicle: saline with Tween-80) 94 % of control.
With `COP(=O)(Cc1ccccc1O)OC`, the T/C is 97 % of control (dose: 50.0 mg/kg/injection, schedule: Q01DX009 (ip), vehicle: saline); 99 % of control (dose: 100.0 mg/kg/injection, schedule: Q01DX009 (ip), vehicle: saline); 96 % of control (dose: 200.0 mg/kg/injection, schedule: Q01DX009 (ip), vehicle: saline).
Consider `Cc1c(C)n2c(=O)n(-c3ccccc3)c(=O)n2c1=O`, for which the T/C under setting [14] is 99 % of control, the T/C under setting [15] is 99 % of control and the T/C under setting [16] is 99 % of control.
Regarding `O=NN(CCCl)C(=O)N1CCCOC1=O`, the T/C reads like this: (dose: 12.5 mg/kg/injection, schedule: Q01DX001 (ip), vehicle: saline with Tween-80) 115 % of control and 121 % of control; (dose: 25.0 mg/kg/injection, schedule: Q01DX001 (ip), vehicle: saline with Tween-80) 116 % of control.
As to `NNC(=O)C(N)Cc1ccc(O)cc1` (centres undefined), the T/C is 100 % of control under setting [2], 103 % of control under setting [3] and 115 % of control under setting [4].
Take `O=C1CN2CCN3CC(=O)NC(=O)[C@H]3[C@@H]2C(=O)N1`: the T/C was 96 % of control under setting [1], 96 % of control under setting [5] and 98 % of control under setting [6].
For the compound `CCC(c1ccccc1)(c1ccccc1)c1ccccc1`, the T/C under setting [17] was 98 % of control, the T/C under setting [18] is 100 % of control and the T/C under setting [19] was 94 % of control.
With `CSc1ncc(Br)c(C(=O)O)n1`, the T/C is 100 % of control under setting [17], 100 % of control under setting [18] and 100 % of control under setting [19].
For the compound `NC(=O)c1nnn(-c2ccccc2)n1`, the T/C was 105 % of control (dose: 100.0 mg/kg/injection, schedule: Q04DX003 (ip), vehicle: Klucel (hydroxypropylcellulose) (HPC)); 99 % of control (dose: 200.0 mg/kg/injection, schedule: Q04DX003 (ip), vehicle: Klucel (hydroxypropylcellulose) (HPC)); 89 % of control (dose: 400.0 mg/kg/injection, schedule: Q04DX003 (ip), vehicle: Klucel (hydroxypropylcellulose) (HPC)).
On to `NC(=O)C1=Cc2cccn2-c2ccccc2S1`, for which the T/C was 105 % of control under setting [14] and 101 % of control under setting [15].
As to `CC1(C)CC(=O)c2ccccc21`, the T/C is, setting by setting: (dose: 3.12 mg/kg/injection, schedule: Q01DX005 (ip), vehicle: saline with Tween-80) 106 % of control; (dose: 6.25 mg/kg/injection, schedule: Q01DX005 (ip), vehicle: saline with Tween-80) 103 % of control; (dose: 12.5 mg/kg/injection, schedule: Q01DX005 (ip), vehicle: saline with Tween-80) 113 % of control; (dose: 25.0 mg/kg/injection, schedule: Q01DX005 (ip), vehicle: saline with Tween-80) 113 % of control.
As for `COc1ccc2c(c1)OCCN(C)OC2c1ccccc1` (centres undefined), the T/C is, setting by setting: under setting [9], 96 % of control; under setting [10], 95 % of control.
Turning to `CC(C)(O)C(=O)N/N=C/c1ccc(Cl)cc1`, the T/C is 101 % of control under setting [1], 99 % of control under setting [5] and 100 % of control under setting [6].
